Assay results published in paper PMC8592419 (PLoS ONE, 2021).
Where a SMILES comes first, the peptide text is derived from it.

Legend:
[1] = system: M. abscessus clinical isolate MAB13; format: cell-based, M. abscessus subsp. massiliense; details: 3 days at 37°C
Protocol: (§1) Briefly, serial dilutions of the AMPs were prepared with potassium phosphate buffer (PPB) from the concentration range of 3.125 to 400 μg/ml and then 50 μl of each dilution were added to each 96-well plate. Colonies of the isolate were suspended and then further diluted in Mueller-Hinton broth to obtain a final concentration of 1×10^3 CFU/ml (optimized according to the available AMP stock concentration). Fifty microliters of this inoculum were added to each well of the plates. The plates were incubated for 3 days at 37°C. Plain media and bacterial suspensions without AMPs were used as negative and positive controls. The MIC values were read and recorded. All assays were performed in duplicate and two independent experiments.
(§2) For the in vitro antimicrobial susceptibility, the same protocol as described above was used. The culture plates were further incubated up to 3 days at 37°C. The MIC values were read and recorded.

[2] = system: M. abscessus clinical isolate MAB09; test: microbe, parasite or virus in culture; format: cell-based, M. abscessus subsp. abscessus
Protocol: (§3) Mab suspensions at a 5×10^5 CFU/ml final concentration were added to each well and incubated for 3 days and 14 days at 37°C. MIC values were defined when the percent killing of CFUs of more than 90% were compared to the media controls without AMPs or drugs. The fraction inhibitory concentration index (FICI) was calculated using the following formula: FICI = [C(MIC^A)/MIC^A] + [C(MIC^B)/MIC^B]. […] For interpretation, FICI ≤ 0.5 was interpreted as synergism, FICI >0.5–1.0 was interpreted as additive, FICI >1.0–4.0 was interpreted as indifferent and FICI >4.0 was interpreted as antagonism.

[3] = system: M. abscessus clinical isolate MAB02; test: microbe, parasite or virus in culture; format: cell-based, M. abscessus subsp. abscessus
Protocol: as §3

[4] = system: M. abscessus clinical isolate MAB05; test: microbe, parasite or virus in culture; format: cell-based, M. abscessus subsp. abscessus
Protocol: as §3

[5] = system: M. abscessus clinical isolate MAB03; test: microbe, parasite or virus in culture; format: cell-based, M. abscessus subsp. abscessus
Protocol: as §3

[6] = system: M. abscessus clinical isolate MAB07; test: microbe, parasite or virus in culture; format: cell-based, M. abscessus subsp. abscessus
Protocol: as §3

[7] = system: M. abscessus clinical isolate MAB10; test: microbe, parasite or virus in culture; format: cell-based, M. abscessus subsp. abscessus
Protocol: as §3

[8] = system: M. abscessus clinical isolate MAB01; test: microbe, parasite or virus in culture; format: cell-based, M. abscessus subsp. abscessus
Protocol: as §3

[9] = system: M. abscessus clinical isolate MAB11; test: microbe, parasite or virus in culture; format: cell-based, M. abscessus subsp. abscessus
Protocol: as §3

[10] = system: M. abscessus clinical isolate MAB14; test: microbe, parasite or virus in culture; format: cell-based, M. abscessus subsp. massiliense
Protocol: as §3

[11] = system: M. abscessus clinical isolate MAB12; test: microbe, parasite or virus in culture; format: cell-based, M. abscessus subsp. massiliense
Protocol: as §3

[12] = system: M. abscessus clinical isolate MAB15; test: In vitro antimicrobial susceptibility of potential AMPs, broth microdilution, 3 days; format: cell-based, M. abscessus subsp. massiliense; details: 3 days at 37°C
Protocol: as §1, §2

[13] = system: M. abscessus clinical isolate MAB16; test: as above; format: cell-based, M. abscessus subsp. massiliense; details: 3 days at 37°C
Protocol: as §1, §2

[14] = system: M. abscessus clinical isolate MAB06; format: cell-based, M. abscessus subsp. abscessus; details: 3 days at 37°C
Protocol: as §1, §2

[15] = system: M. abscessus clinical isolate MAB08; test: In vitro antimicrobial susceptibility of potential AMPs, broth microdilution, 3 days; format: cell-based, M. abscessus subsp. abscessus; details: 3 days at 37°C
Protocol: as §1, §2

[16] = system: M. abscessus clinical isolate MAB04; test: as above; format: cell-based, M. abscessus subsp. abscessus; details: 3 days at 37°C
Protocol: as §1, §2

[17] = system: sixteen clinical Mab isolates; test: 24-hour bactericidal activity assay, summary over isolates; format: cell-based, Mycobacterium abscessus; details: majority of the tested strains (10/16 isolates); equivalent of <50 μg/ml
Protocol: as §1
Potential AMPs from the screening assays were subjected to determine the 24-hour bactericidal activity assays (corresponding to the common time of administration) with sixteen clinical Mab isolates using the protocol as described above. To observe the early antimicrobial activities, the plates were incubated for 24 h at 37°C. The samples from each well were further diluted in 0.05% Tween 80 and inoculated on Mueller-Hinton agar. After incubation for 3 days at 37°C, the colony-forming units (CFUs) were counted and calculated for the percentage of killing using the following formula: % killing = 1 - (CFU sample/ CFU control) ×100.

[18] = system: clinical isolates of M. abscessus; test: In vitro susceptibility of potential AMPs, 3 days, summary over isolates; format: cell-based, Mycobacterium abscessus; details: isolates MAB01 and MAB03
Protocol: as §1, §2

[19] = Mycobacteroides abscessus, read-out: MIC of CLA

CC[C@H](C)[C@H](NC(=O)[C@H](CCCCN)NC(=O)[C@H](CCCNC(=N)N)NC(=O)CNC(=O)[C@H](CC(C)C)NC(=O)[C@H](CO)NC(=O)[C@H](CCCNC(=N)N)NC(=O)[C@H](CC(C)C)NC(=O)CNC(=O)CN)C(=O)N[C@@H](CC(C)C)C(=O)N[C@@H](CCCNC(=N)N)C(=O)N[C@@H](C)C(=O)N[C@@H](Cc1c[nH]c2ccccc12)C(=O)N[C@@H](CCCCN)C(=O)O [S63] (H-GGLRSLGRKILRAWK-OH)
Antimicrobial peptides against M. abscessus isolates, MIC value [1]: >400 µg/mL | FICI ([2]; MAB09, AMP + CLA, mean ± S.D., two independent experiments): 0.52±0.00 | MIC, AMP alone ([2]; MAB09, AMP alone): >400 µg/mL | FICI ([3]; MAB02, AMP + CLA, mean ± S.D., two independent experiments): 1.04±0.04 | MIC, AMP alone ([3]; MAB02, AMP alone): >400 µg/mL | FICI ([4]; MAB05, AMP + CLA, mean ± S.D., two independent experiments): 1.01±0.00 | MIC, AMP alone ([4]; MAB05, AMP alone): >400 µg/mL | FICI ([5]; MAB03, AMP + CLA, mean ± S.D., two independent experiments): 0.52±0.00 | MIC, AMP alone ([5]; MAB03, AMP alone): 12.5 µg/mL | FICI ([6]; MAB07, AMP + CLA, mean ± S.D., two independent experiments): 0.04±0.01 | MIC, AMP alone ([6]; MAB07, AMP alone): >400 µg/mL | FICI ([7]; MAB10, AMP + CLA, mean ± S.D., two independent experiments): 0.07±0.00 | MIC, AMP alone ([7]; MAB10, AMP alone): >400 µg/mL | FICI ([8]; MAB01, AMP + CLA, mean ± S.D., two independent experiments): 0.63±0.17 | FICI ([9]; MAB11, AMP + CLA, mean ± S.D., two independent experiments): 0.76±0.35 | MIC, AMP alone ([9]; MAB11, AMP alone): >400 µg/mL | FICI ([10]; MAB14, AMP + CLA, mean ± S.D., two independent experiments): 0.19±0.00 | MIC, AMP alone ([10]; MAB14, AMP alone): >400 µg/mL | FICI ([11]; MAB12, AMP + CLA, mean ± S.D., two independent experiments): 1.01±0.00 | MIC, AMP alone ([11]; MAB12, AMP alone): >400 µg/mL | Antimicrobial peptides against M. abscessus isolates, MIC value [12]: >400 µg/mL | Antimicrobial peptides against M. abscessus isolates, MIC value [13]: >400 µg/mL | Antimicrobial peptides against M. abscessus isolates, MIC value [14]: >400 µg/mL | Antimicrobial peptides against M. abscessus isolates, MIC value [15]: >400 µg/mL | Antimicrobial peptides against M. abscessus isolates, MIC value [16]: >400 µg/mL | MIC with ~99% killed within 24 h [17]: < 29.22 µM | MIC values after 3 days [18]: 3.65 to 7.30 µM

CC[C@H]1OC(=O)[C@H](C)[C@@H](O[C@H]2C[C@@](C)(OC)[C@@H](O)[C@H](C)O2)[C@H](C)[C@@H](O[C@@H]2O[C@H](C)C[C@H](N(C)C)[C@H]2O)[C@](C)(OC)C[C@@H](C)C(=O)[C@H](C)[C@@H](O)[C@]1(C)O [CLA, Clarithromycin]
MIC of CLA, combined CLA + S61 ([2]; MAB09, checkerboard, in combination with S61): 8 µg/mL | MIC of CLA, combined CLA + S62 ([2]; MAB09, checkerboard, in combination with S62): 6 µg/mL | MIC of CLA, combined CLA + S63 ([2]; MAB09, checkerboard, in combination with S63): 4 µg/mL | MIC [2, 19]: 8 µg/mL | MIC of CLA, combined CLA + S61 ([3]; MAB02, checkerboard, in combination with S61): 64 µg/mL | MIC of CLA, combined CLA + S62 ([3]; MAB02, checkerboard, in combination with S62): 64 µg/mL | MIC of CLA, combined CLA + S63 ([3]; MAB02, checkerboard, in combination with S63): 64 µg/mL | MIC [3, 19]: 64 µg/mL | MIC of CLA, combined CLA + S61 ([4]; MAB05, checkerboard, in combination with S61): 16 µg/mL | MIC of CLA, combined CLA + S62 ([4]; MAB05, checkerboard, in combination with S62): 16 µg/mL | MIC of CLA, combined CLA + S63 ([4]; MAB05, checkerboard, in combination with S63): 16 µg/mL | MIC [4, 19]: 16 µg/mL | MIC of CLA, combined CLA + S61 ([5]; MAB03, checkerboard, in combination with S61): 2 µg/mL | MIC of CLA, combined CLA + S62 ([5]; MAB03, checkerboard, in combination with S62): 1.5 µg/mL | MIC of CLA, combined CLA + S63 ([5]; MAB03, checkerboard, in combination with S63): 4 µg/mL | MIC [5, 19]: 8 µg/mL | MIC of CLA, combined CLA + S61 ([6]; MAB07, checkerboard, in combination with S61): 0.25 µg/mL | MIC of CLA, combined CLA + S62 ([6]; MAB07, checkerboard, in combination with S62): 0.25 µg/mL | MIC of CLA, combined CLA + S63 ([6]; MAB07, checkerboard, in combination with S63): 0.25 µg/mL | MIC [6, 19]: 16 µg/mL | MIC of CLA, combined CLA + S61 ([7]; MAB10, checkerboard, in combination with S61): 32 µg/mL | MIC of CLA, combined CLA + S62 ([7]; MAB10, checkerboard, in combination with S62): 32 µg/mL | MIC of CLA, combined CLA + S63 ([7]; MAB10, checkerboard, in combination with S63): 8 µg/mL | MIC [7, 19]: 1020 µg/mL | MIC of CLA, combined CLA + S61 ([8]; MAB01, checkerboard, in combination with S61): 32 µg/mL | MIC of CLA, combined CLA + S62 ([8]; MAB01, checkerboard, in combination with S62): 96 µg/mL | MIC [8, 19]: 1020 µg/mL | MIC of CLA, combined CLA + S61 ([9]; MAB11, checkerboard, in combination with S61): 128 µg/mL | MIC of CLA, combined CLA + S62 ([9]; MAB11, checkerboard, in combination with S62): 192 µg/mL | MIC of CLA, combined CLA + S63 ([9]; MAB11, checkerboard, in combination with S63): 192 µg/mL | MIC [9, 19]: 512 µg/mL | MIC of CLA, combined CLA + S61 ([10]; MAB14, checkerboard, in combination with S61): 4 µg/mL | MIC of CLA, combined CLA + S62 ([10]; MAB14, checkerboard, in combination with S62): 4 µg/mL | MIC of CLA, combined CLA + S63 ([10]; MAB14, checkerboard, in combination with S63): 32 µg/mL | MIC [10, 19]: 512 µg/mL | MIC of CLA, combined CLA + S61 ([11]; MAB12, checkerboard, in combination with S61): 1,024 μg/ml | MIC of CLA, combined CLA + S62 ([11]; MAB12, checkerboard, in combination with S62): 1,024 μg/ml | MIC of CLA, combined CLA + S63 ([11]; MAB12, checkerboard, in combination with S63): 1,024 μg/ml | MIC [11, 19]: 1020 µg/mL
